Assay results: patent publication US8119624B2, “Fused phenyl amido heterocyclic compounds” (Pfizer Inc., priority 2006, dated 2012)

Molecular target: T1, Full-length glucokinase (beta cell isoform) (Homo sapiens, UniProt P35557)
T1 construct: Full-length glucokinase (beta cell isoform) was His-tagged at N-terminus; His tag (N); made in house
T1 sequence (P35557 1-465): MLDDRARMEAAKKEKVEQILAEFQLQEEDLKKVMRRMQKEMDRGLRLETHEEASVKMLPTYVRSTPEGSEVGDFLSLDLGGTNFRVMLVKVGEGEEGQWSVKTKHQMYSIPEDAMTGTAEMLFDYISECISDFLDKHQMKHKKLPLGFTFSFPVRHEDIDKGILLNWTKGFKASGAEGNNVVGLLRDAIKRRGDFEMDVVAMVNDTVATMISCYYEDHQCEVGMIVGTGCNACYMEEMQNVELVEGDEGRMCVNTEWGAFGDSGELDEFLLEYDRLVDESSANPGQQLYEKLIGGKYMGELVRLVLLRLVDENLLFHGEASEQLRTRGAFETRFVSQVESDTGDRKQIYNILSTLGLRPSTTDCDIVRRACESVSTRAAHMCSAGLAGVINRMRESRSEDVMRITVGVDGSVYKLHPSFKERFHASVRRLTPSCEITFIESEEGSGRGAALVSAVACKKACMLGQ
Test: Glucokinase biochemical assay (PK/LDH-coupled, NADH depletion at 340 nm): % activation, EC50, % max activation
Conditions: 5 mM glucose; for activation at 10 µM: 10 uM compound, % Activation=(Va/Vo−1)×100, read-out: % Activation at 10 uM; for EC50: GK activation, read-out: EC50; for Emax: fitted maximum activation, read-out: % Max Activation
Description: Full-length glucokinase (beta cell isoform) was His-tagged at N-terminus and purified by a Ni column followed by size exclusion chromatography. Glucose was obtained from Calbiochem, and other reagents were from Sigma.
All assays were performed in a Corning 96-well plate using Spectramax PLUS spectrophotometer (Molecular Devices) at room temperature. The final assay volume was 100 uL. The buffer conditions used in this assay were as follows: 50 mM HEPES, 5 mM glucose, 1 mM ATP, 2 mM MgCl2, 0.7mM NADH, 2 mM DTT, 1 Unit/mL PK/LDH, 0.2 mM phosphoenolpyruvate, 25 mM KCl. Tested compound in DMSO solution was added to the buffer and mixed well by a plate shaker for 1 minute. The final concentration of DMSO introduced into the assay was 1%.
Glucokinase was added to the buffer mixture to initiate the reaction in the presence and absence of compound. Reaction was monitored by absorbance at 340nm due to the depletion of NADH. The initial reaction velocity was measured by the slope of a linear time course of 200-900 sec.
The percentage of activation was calculated by the following equation: % Activation=(Va/Vo−1)×100;
wherein each of Va and Vo is defined as the initial reaction velocity in the presence and absence of the tested compound, respectively.
The GK activities were measured as a function of compound concentrations.

SMILES | activation at 10 µM [%] | EC50 [nM] | Emax [%]
CC1Cc2c(cc(Oc3ccc(S(C)(=O)=O)cc3)cc2C(=O)Nc2ccccn2)O1 (stereo not drawn) [Example 1, 6-(4-Methanesulfonyl-phenoxy)-2-methyl-2,3-dihydrobenzofuran-4-carboxylic acid pyridin-2-ylamide] | 101 | 8700 | 144
Cc1ccc(NC(=O)c2cc(Oc3ccc(S(C)(=O)=O)cc3)cc3c2CC(C)O3)nc1 (stereo not drawn) [Example 2, 6-(4-Methanesulfonyl-phenoxy)-2-methyl-2,3-dihydrobenzofuran-4-carboxylic acid(5-methyl-pyridin-2-yl)-amide] | 113 | 5300 | 152
Cc1cc2cc(Oc3ccc(S(C)(=O)=O)cc3)cc(C(=O)Nc3ccn(C)n3)c2o1 [Example 4, 5-(4-Methanesulfonyl-phenoxy)-2-methyl-benzofuran-7-carboxylic acid(1-methyl-1H-pyrazol-3-yl)-amide] | 14.6 |  | 
Cc1cc2cc(Oc3ccc(S(C)(=O)=O)cc3)cc(C(=O)Nc3ccccn3)c2o1 [Example 5, 5-(4-Methanesulfonyl-phenoxy)-2-methyl-benzofuran-7-carboxylic acid pyridin-2-ylamide] | -6.3 |  | 
Cc1ccc(NC(=O)c2cc(Oc3ccc(S(C)(=O)=O)cc3)cc3c2CCO3)nc1 [Example 6, 6-(4-Methanesulfonyl-phenoxy)-2,3-dihydrobenzofuran-4-carboxylic acid(5-methyl-pyridin-2-yl)-amide] | 87.6 | 9600 | 123
Cc1ccc(NC(=O)c2cc(Oc3ccc(S(C)(=O)=O)cc3)cc3occc23)nc1 [Example 7, 6-(4-Methanesulfonyl-phenoxy)-benzofuran-4-carboxylic acid(5-methyl-pyridin-2-yl)-amide] | 99.7 | 3700 | 129
Cc1ccc(NC(=O)c2cc3c(c(Oc4ccc(S(C)(=O)=O)cc4)c2)CCO3)nc1 [Example 8, 4-(4-Methanesulfonyl-phenoxy)-2,3-dihydro-benzofuran-6-carboxylic acid(5-methyl-pyridin-2-yl)-amide] | 127 | 2800 | 100
Cc1ccc(NC(=O)c2cc(Oc3ccc(S(C)(=O)=O)cc3)c3ccoc3c2)nc1 [Example 9, 4-(4-Methanesulfonyl-phenoxy)-benzofuran-6-carboxylic acid(5-methyl-pyridin-2-yl)-amide] | 72.7 | 3080 | 94.7
Cc1ccc(NC(=O)c2cc(Oc3ccc(S(C)(=O)=O)cc3)c3c(c2)OC(C)C3)nc1 (stereo not drawn) [Example 10, 4-(4-Methanesulfonyl-phenoxy)-2-methyl-2,3-dihydro-benzofuran-6-carboxylic acid(5-methyl-pyridin-2-yl)-amide] | 98.7 | 1100 | 122
CC1Cc2c(Oc3ccc(S(C)(=O)=O)cc3)cc(C(=O)Nc3ccn(C)n3)cc2O1 (stereo not drawn) [Example 11, 4-(4-Methanesulfonyl-phenoxy)-2-methyl-2,3-dihydro-benzofuran-6-carboxylic acid(1-methyl-1H-pyrazol-3-yl)-amide] | 158 | 2000 | 177
CC(C)COc1cc(C(=O)Nc2ccc(C(=O)O)cn2)cc2c1CC(C)(C)O2 [Example 14, 6-[(4-Isobutoxy-2,2-dimethyl-2,3-dihydro-benzofuran-6-carbonyl)-amino]-nicotinic acid] | 167 | 1300 | 115
CC1(C)Cc2c(Oc3ccc(S(C)(=O)=O)cc3)cc(C(=O)Nc3ccc(C(N)=O)cn3)cc2O1 [Example 15, 6-{[4-(4-Methanesulfonyl-phenoxy)-2,2-dimethyl-2,3-dihydro-benzofuran-6-carbonyl]-amino}-nicotinamide] | 4.3 |  | 
Cc1ccc(NC(=O)c2cc(Oc3ccc(S(C)(=O)=O)cc3)c3c(c2)OC(C)(C)C3)nn1 [Example 21, 4-(4-Methanesulfonyl-phenoxy)-2,2-dimethyl-2,3-dihydro-benzofuran-6-carboxylic acid (6-methyl-pyridazin-3-yl)-amide] | 97.9 | 3900 | 127
Cc1ccnc(NC(=O)c2cc(Oc3ccc(S(C)(=O)=O)cc3)c3c(c2)OC(C)(C)C3)c1 [Example 23, 4-(4-Methanesulfonyl-phenoxy)-2,2-dimethyl-2,3-dihydro-benzofuran-6-carboxylic acid(4-methyl-pyridin-2-yl)-amide] | 46.1 | 1400 | 70
Cc1nnc(NC(=O)c2cc(Oc3ccc(S(C)(=O)=O)cc3)c3c(c2)OC(C)(C)C3)s1 [Example 24, 4-(4-Methanesulfonyl-phenoxy)-2,2-dimethyl-2,3-dihydro-benzofuran-6-carboxylic acid(5-methyl-[1,3,4]thiadiazol-2-yl)-amide] | 121 | 1490 | 140
Cc1cc(NC(=O)c2cc(Oc3ccc(S(C)(=O)=O)cc3)c3c(c2)OC(C)(C)C3)no1 [Example 25, 4-(4-Methanesulfonyl-phenoxy)-2,2-dimethyl-2,3-dihydro-benzofuran-6-carboxylic acid(5-methyl-isoxazol-3-yl)-amide] | 102 | 1300 | 116

Continued by falling EC50, values first:

activation at 10 µM [%] | EC50 [nM] | Emax [%] | SMILES
105 | 950 | 114 | COc1ccnc(NC(=O)c2cc(Oc3ccc(S(C)(=O)=O)cc3)c3c(c2)OC(C)(C)C3)c1 [Example 18, 4-(4-Methanesulfonyl-phenoxy)-2,2-dimethyl-2,3-dihydro-benzofuran-6-carbo-xylic acid(4-methoxy-pyridin-2-yl)-amide]
161 | 510 | 165 | CC1(C)Cc2c(Oc3ccc(S(C)(=O)=O)cc3)cc(C(=O)Nc3cnccn3)cc2O1 [Example 17, 4-(4-Methanesulfonyl-phenoxy)-2,2-dimethyl-2,3-dihydrobenzofuran-6-carboxy-lic acid pyrazin-2-ylamide]
213 | 506 | 192 | Cn1ccc(NC(=O)c2cc(Oc3ccc(S(C)(=O)=O)cc3)c3c(c2)OC(C)(C)C3)n1 [Example 16, 4-(4-Methanesulfonyl-phenoxy)-2,2-dimethyl-2,3-dihydro-benzofuran-6-carbo-xylic acid(1-methyl-1H-pyrazol-3-yl)-amide]
197 | 400 | 200 | CC1(C)Cc2c(Oc3ccc(S(C)(=O)=O)cc3)cc(C(=O)Nc3ccon3)cc2O1 [Example 26, 4-(4-Methanesulfonyl-phenoxy)-2,2-dimethyl-2,3-dihydro-benzofuran-6-carboxylic acid isoxazol-3-ylamide]
139 | 370 | 156 | CC1(C)Cc2c(Oc3ccc(S(C)(=O)=O)cc3)cc(C(=O)Nc3ccccn3)cc2O1 [Example 19, 4-(4-Methanesulfonyl-phenoxy)-2,2-dimethyl-2,3-dihydro-benzofuran-6-carbo-xylic acid pyridin-2-ylamide]
145 | 348 | 140 | Cc1ccc(NC(=O)c2cc(Oc3ccc(S(C)(=O)=O)cc3)c3c(c2)OC(C)(C)C3)nc1 [Example 3, 4-(4-Methanesulfonyl-phenoxy)-2,2-dimethyl-2,3-dihydrobenzofuran-6-carboxylic acid(5-methyl-pyridin-2-yl)-amide]
230 | 314 | 231 | Cn1ncc(NC(=O)c2cc(Oc3ccc(S(C)(=O)=O)cc3)c3c(c2)OC(C)(C)C3)n1 [Example 20, 4-(4-Methanesulfonyl-phenoxy)-2,2-dimethyl-2,3-dihydro-benzofuran-6-carbo-xylic acid(2-methyl-2H-[1,2,3]triazol-4-yl)-amide]
118 | 290 | 117 | CC1(C)Cc2c(Oc3ccc(S(C)(=O)=O)cc3)cc(C(=O)Nc3ccc(CO)cn3)cc2O1 [Example 22, 4-(4-Methanesulfonyl-phenoxy)-2,2-dimethyl-2,3-dihydro-benzofuran-6-carboxylic acid (5-hydroxymethyl-pyridin-2-yl)-amide]
